Assay: gradient 5% acetonitrile 3 min, to 50% in 2 min, to 85% in 15 min, held 3 min, 100 µL/min
Conditions: column: Zorbax Extend-C18 2.1 x 50 mm; eluents: water / acetonitrile, 0.1% formic acid
Method in brief: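 Standards, all pure, were combined into mixtures of ~100 molecules and run at 100 μL/min on a Zorbax Extend-C18 column (2.1 × 50 mm, 1.8 μm) with water and acetonitrile, each containing 0.1% formic acid. A coupled quadrupole time-of-flight mass spectrometer operated in positive and negative ionization mode. Retention time values come from computationally picked adduct peaks, each inspected manually.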

| SMILES | RP-LC retention time [s] |
| --- | --- |
| COc1ccc(-c2csc(NC(=O)c3ccc(Cl)c(Cl)c3)n2)cc1 | 1140 |
| Cc1ccc(-c2nccn3cc(C(=O)N4CCOCC4)nc23)cc1 | 748 |
| CC(C)c1noc(-c2cc(=O)n(CC(=O)NCc3ccccc3F)c3ccccc23)n1 | 959 |
| CN1C(=O)COc2ccc(-c3csc(NC(=O)c4ccc(Cl)cc4)n3)cc21 | 1010 |
| Cc1ccc(Cn2nc3c(S(=O)(=O)N4CCN(c5ccc(F)cc5)CC4)cccn3c2=O)cc1 | 1020 |
| CSc1nc(Nc2cccc(Cl)c2)c(C#N)c(-c2ccccc2)n1 | 1280 |
| CCc1noc(NC(C)=O)c1-c1ccc(C)c(S(=O)(=O)Nc2cccc(Cl)c2)c1 | 867 |
| O=C(NC1CCCN(c2ccc(=O)[nH]n2)C1)C1(S(=O)(=O)c2ccc(Cl)cc2)CC1 (stereo unspecified) | 712 |
| COc1ccc(-c2noc(Cn3ccn(-c4ccccc4OC)c(=O)c3=O)n2)cc1 | 623 |
| CCN1c2ccc(C)cc2C(=O)NC12CCN(C(=O)c1cccc(F)c1)CC2 | 835 |
| CCC1CN(C(=O)N2CCC(C(=O)NCCN3CCCCCC3)CC2)c2ccccc2O1 (stereo unspecified) | 660 |
| Cc1ccn2cc(-c3ccc(NC(=O)C4CCCCC4)cc3)nc2n1 | 657 |
| Cc1ccc(NC(=O)c2c(C)sc3ncnc(N4CCCC(C)C4)c23)cc1F (stereo unspecified) | 1290 |
| Cn1c(=O)n([C@H]2CCN(C(=O)Nc3ccc4c(c3)OCCO4)C2)c2ncccc21 | 686 |
| CCc1nn2c(CNC(=O)c3ccc(C)c(C)c3)c(-c3ccccc3)nc2s1 | 983 |
| O=C(CN1C(=O)c2ccccc2C1=O)Nc1nnc(C2COc3ccccc3O2)o1 (stereo unspecified) | 714 |
| C=CCn1nnc(NCc2ccc(-c3cc(Cl)ccc3Cl)o2)n1 | 1130 |
| CNC(=O)N1CCCN(S(C)(=O)=O)CC1 | 533 |
| CCCC(=O)NCCc1c2n(c3ccc(OC)cc13)CCCc1ccccc1-2 | 1150 |
| CCOc1ccccc1NC(=O)c1ccc(=O)n(Cc2ccccc2)n1 | 980 |
| CN1C(=O)c2cc(C(=O)NCc3ccccc3)nn2CC1(C)C(=O)NC1CCCCCC1 (stereo unspecified) | 791 |
| Cc1ccnc(NC(=O)C2CCN(S(=O)(=O)c3cc(C(=O)N4CCCC4)n(C)c3)CC2)c1 | 674 |
| O=C(NCc1ccccc1F)c1ccc2c(c1)CN(Cc1cccs1)CCO2 | 759 |

| SMILES | RP-LC retention time [s] |
| --- | --- |
| Cc1ccc2c(c1)C1CC(C)(O2)N(c2cccc(C(=O)NCc3ccccn3)c2)C(=O)N1 (stereo unspecified) | 646 |
| C#CCOCC1CCCN(S(=O)(=O)c2cc(C)c(Cl)cc2Cl)C1 (stereo unspecified) | 1130 |
| COc1cc(Cl)ccc1C(=O)N1CCCN(C2CCN(CC3CC3)C2=O)CC1 (stereo unspecified) | 574 |
| CCc1noc2cc(-c3ccccc3)n(C)c(=O)c12 | 950 |
| O=C(NCCCN1CCCCC1)C1CN(S(=O)(=O)c2cccnc2)CC12CCCCC2 (stereo unspecified) | 573 |
| CCCN(CC1CCOC1)C(=O)Nc1ccc(F)cc1 (stereo unspecified) | 728 |
| CCc1cc(=O)n(CC(=O)Nc2ccc(F)cc2)c(N)n1 | 596 |
| Cc1ccc(S(=O)(=O)Nc2ccc3c(c2)CCC(=O)N3C)cc1Cl | 1000 |
| Cc1cc(N2CCN(S(=O)(=O)c3ccc(Cl)cc3)CC2)nc(NC2CCCCC2)n1 | 884 |
| COc1ccc(C(=O)Nc2ccc3c(c2)Sc2ncccc2C(=O)N3C(C)C)cc1 | 860 |
| CCc1ccc(NC(=O)N2CCc3[nH]cnc3C2c2ccncc2)cc1 (stereo unspecified) | 581 |
| CCC(=O)N(C1CCOCC1)C1CCN(S(=O)(=O)c2ccc(Cl)c(C)c2)CC1 | 954 |
| CCC(C)NC(=O)C1CCN(c2nc3cccnc3s2)CC1 (stereo unspecified) | 664 |
| COc1ccc(C)cc1NC(=O)Cn1c(N)nc(C)cc1=O | 618 |
| O=C(Nc1ccc2c(c1)OCO2)N1CCC(N2CCN(Cc3ccccc3)C2=O)CC1 | 787 |
| CCn1cc(-c2nc(C(=O)Nc3ccc(Cl)cc3)cs2)c2cccnc21 | 1330 |
| Cc1ccc(N2CCC(NC(=O)Nc3ccccc3C(F)(F)F)C2=O)cc1 (stereo unspecified) | 898 |
| O=C(Nc1ccc(F)c(Cl)c1)C1CCc2sc(C(=O)N3CCOCC3)cc2C1 (stereo unspecified) | 807 |
| Cc1oc(C2CCC2)nc1C(=O)NCc1cccc(C(F)(F)F)c1 | 1110 |
| CCn1cc(CN2CCC(C(=O)NC(C)c3ccccc3)CC2)c2cc(Cl)ccc21 (stereo unspecified) | 753 |
| O=C(c1ccccc1)N1C[C@@H]2C[C@H]1C[C@@H]2NS(=O)(=O)c1ccccc1 | 752 |
| COC(=O)c1c(C)[nH]c(C(=O)N2CCC(CC(=O)N3CCCCC3)CC2)c1C | 716 |
| Cc1cccc2c(C(=O)NC3CC3)cc(N(C)C)nc12 | 588 |

| SMILES | RP-LC retention time [s] |
| --- | --- |
| CCNC(=O)C1CCN(S(=O)(=O)c2cc(C(=O)N(C)C)cs2)CC1 | 624 |
| O=C(NCCCn1c(C(F)(F)F)nc2cccnc21)Nc1ccccc1Br | 860 |
| CCCNC(=O)N1CC(Oc2ccc(-c3nc(C)no3)cc2)C1 | 745 |
| Cn1nc(-c2cccc(NC(=O)c3ccc4ccccc4n3)c2)ccc1=O | 829 |
| CC(C)Oc1ccccc1CN1CCC2(CC1)CN(C)CC2c1nnc(C(C)C)o1 (stereo unspecified) | 569 |
| O=C(Cn1ncc2c(N3CCN(c4ccccn4)CC3)ncnc21)Nc1ccccc1Cl | 564 |
| O=c1ccc(S(=O)(=O)N2CCCCC2)cn1Cc1ccccc1 | 851 |
| O=C(NC1CCCC1)N1CCC(OC2CCN(Cc3ccccc3)CC2)CC1 | 634 |
| CN(C)C[C@@H]1CN(c2ccccn2)C[C@H]1NC(=O)c1ccc2ccccc2n1 | 567 |
| CCCNC(=O)C1CCCN(c2nc3ncn(CC(=O)Nc4ccc5c(c4)CCC5)c(=O)c3s2)C1 (stereo unspecified) | 762 |
| Cc1c(S(=O)(=O)NC2CC2)c(C)n(C)c1-c1nnc(C2CCC2)o1 | 787 |
| CC(C)C(=O)Nc1ccc(S(=O)(=O)NCC(c2ccsc2)N(C)C)cc1 (stereo unspecified) | 565 |
| O=C(NCc1ccccc1)c1cc2sccc2n1Cc1ccc(Cl)cc1 | 1170 |
| CC(C)c1noc(-c2ccc(-n3cnc(C(=O)NCC4CC4)c3)nc2)n1 | 839 |
| CN(C)CCn1nnc2cc(-c3noc(-c4ccc(C#N)cc4)n3)ccc21 | 643 |
| CCc1nc2nccc(-c3cccc(OC)c3)n2n1 | 762 |
| O=C(O)C1(c2cc(-c3ccccc3)on2)CC1 | 736 |
| O=C(CCc1nc2ccccc2s1)NCC12CCCC=C1NC(=O)CC2 (stereo unspecified) | 695 |
| CCOc1ccccc1NC(=O)N1CCC2(CC1)NC(=O)c1cc(F)ccc1N2C | 817 |
| Cn1nnnc1SCC(=O)Nc1nc2c(s1)C(=O)CCC2 | 607 |
| CCCN1C(=O)C2CCC(=O)N2c2ccc(C(=O)NC(C)c3ccccc3)cc21 (stereo unspecified) | 801 |
| CCC(C)NC(=O)C1CCN(S(=O)(=O)c2cn(CC)cn2)CC1 (stereo unspecified) | 639 |
| Cc1cc(OCC(=O)Nc2ccccc2C(F)(F)F)nc(N2CCCC(C)C2)n1 (stereo unspecified) | 734 |

| SMILES | RP-LC retention time [s] |
| --- | --- |
| CC1CCN(CCNC(=O)C2CCCN(c3ncnc4c3nc3n4CCCCC3)C2)CC1 (stereo unspecified) | 599 |
| Cc1ccc(CN2CC(=O)N(CCc3ccccn3)C(c3cccs3)C2=O)cc1 (stereo unspecified) | 559 |
| CCOC(C)C(/C=N/NC(N)=S)=N/NC(N)=S (stereo unspecified) | 654 |
| COCCCNc1nc(-c2ccc(OC)cc2)nc2ccccc12 | 690 |
| CCn1cc(S(=O)(=O)Nc2ccccc2OC)c2cccnc21 | 831 |
| CCN(c1ccccc1)c1nc(Cl)nc2c1cnn2C | 1070 |
| O=S(=O)(c1ccc(F)cc1)N1CCC(Cc2nncn2-c2ccccc2)CC1 | 787 |
| CC1CN(C(=O)CCC(=O)N2CCN(c3ccccn3)CC2)c2ccccc2O1 (stereo unspecified) | 623 |
| O=C(Cc1nnc(-c2cccc(F)c2)o1)N1CCOCC1 | 651 |
| COC(=O)c1cc2c(cn1)[nH]c1ccccc12 | 704 |
| COC[C@@H]1CN(S(=O)(=O)c2cccc(C#N)c2)C[C@H]1c1ccccn1 | 715 |
| O=c1c2sccc2n(Cc2nc(-c3ccc(Br)cc3)no2)c(=O)n1-c1cccc(F)c1 | 1070 |
| Cc1cc(N2CCCC2)n2nc(CN(C)Cc3ccccc3)nc2n1 | 593 |
| Cc1ccc(S(=O)(=O)c2cnc(N3CCN(c4ccccc4Cl)CC3)nc2N)cc1C | 1280 |
| COc1ccc(CN2CCc3nc(N4CCN(c5ncccn5)CC4)ncc3C2)c(OC)c1 | 664 |
| CC1=NS(=O)(=O)N(Cc2ccccc2)C=C1C(=O)OCc1ccc(F)c(F)c1 | 1100 |
| CCC(C)NC(=O)c1cc2c(s1)CCN(C(=O)c1ccc(F)cc1)C2 (stereo unspecified) | 804 |
| COC(=O)c1cccc(Nc2c(-c3ccc(F)cc3)nc3cnccn23)c1 | 830 |
| CCc1ccc(CNC(=O)C2CCN(C(=O)c3ncn4c3COC(c3ccccc3)C4)CC2)cc1 (stereo unspecified) | 756 |
| Cc1ccc2c(c1)N(Cc1ccccc1F)N=C(C(=O)N1CCCCC1)S2(=O)=O | 1000 |
| Cc1ccc(-c2nc(Nc3ccc(C)c(Cl)c3)sc2CC(=O)O)cc1 | 1100 |
| c1ccc(NN(Cc2ccncc2)c2ccccc2)cc1 | 774 |

Reference: the METLIN SMRT retention time set (Domingo-Almenara et al. 2019)
